From patent US10907199B2, “Double-strand DNA break quantification method” (SOCIETE DE COMMERCIALISATION DES PRODUITS DE LA RECHERCHE …, priority 2017, dated 2021)

Target: T1, terminal deoxynucleotidyl transferase (TdT) (Bos taurus, UniProt P06526)
T1 construct: purchased Roche (Sigma-Aldrich Canada) 3333574001
Experiment: TdT inhibition by ATP: tailing reaction of linearized pBlueScript plasmid with TdT and dATP, read by DNA size shift on agarose gel
Assay type: biochemical
Experimental: Linearized pBlueScript plasmid was used in a tailing reaction using TdT and dATP following manufacturer's instruction. Different concentrations of ATP were added in the reaction and the tailing efficiency was observed after agarose gel electrophoresis by a shift in the DNA size. It was sought to determine conditions for efficient repair of DNA nicks and gaps prior to the TdT end labeling. A proper combination of T4 DNA ligase and T4 DNA polymerase was used to seal nicks and fill the gaps respectively and termed «Nick and Gap Repair» (NGR). […] Limiting the purification steps is crucial to improve DNA recovery throughout the process. It was observed that TdT is inhibited by the high concentration of ATP recommended for DNA ligations (1 mM, FIG. 6). However, it was determined that efficient DNA nick sealing is still observed by decreasing the ATP concentration to 1 μM. […] From these simple modifications, both repair and labeling reactions can be performed without the need for DNA purification between these steps. It is worth noting that although the use of «Tap» DNA ligase would have the advantage of preventing DSB ligations, T4 DNA ligase was however strongly preferred because of its compatibility with the gap-filling step and its greater nick sealing activity (not shown). The efficiency of the repair step for the specific capture of DSBs within genomic DNA was established using HeLa-I-SceI DNA pre-digested with the nicking endonuclease Nt.BbvCI as this enzyme creates a single nick within a 7 nucleotide recognition sequence. A single Nt.BbvCI recognition sequence is present within the I-SceI insert and can be detected by DBrIC using a primer pair adjacent to the nick (FIG. 5C).

T1 sequence (P06526 139-509 limits assumed): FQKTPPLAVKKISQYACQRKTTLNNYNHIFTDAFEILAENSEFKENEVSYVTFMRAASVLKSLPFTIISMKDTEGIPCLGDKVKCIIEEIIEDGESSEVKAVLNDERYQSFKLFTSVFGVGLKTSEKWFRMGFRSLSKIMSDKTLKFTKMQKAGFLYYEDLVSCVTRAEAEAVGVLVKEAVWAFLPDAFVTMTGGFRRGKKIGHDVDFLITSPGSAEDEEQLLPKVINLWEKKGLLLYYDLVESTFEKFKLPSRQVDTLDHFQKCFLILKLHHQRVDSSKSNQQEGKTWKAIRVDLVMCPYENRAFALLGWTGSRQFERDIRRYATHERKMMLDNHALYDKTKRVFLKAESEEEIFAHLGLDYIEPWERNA

SMILES: Nc1ncnc2c1ncn2[C@@H]1O[C@H](COP(=O)(O)OP(=O)(O)OP(=O)(O)O)[C@@H](O)[C@H]1O [ATP, adenosine triphosphate]
- subsequent TdT reaction in presence of ATP (1 μM ATP): proceed normally
- enzymatic activity of the TdT in presence of ATP (10 μM ATP (usual concentration for DNA ligase and DNA polymerase), FIG. 6): inhibit
- TdT enzymatic activity (tailing efficiency) in presence of ATP (1 mM ATP (high concentration recommended for DNA ligations), FIG. 6): inhibited
